“Also recorded” adds a separate entry of the source.
Tested on: KNAT1
Test: qRT-PCR of cytokinin responsive gene after BA pulse, fold change vs untreated wild type
Assay type: cell-based, Arabidopsis thaliana

Which results are given for c1ccc(CNc2ncnc3nc[nH]c23)cc1 [benzyladenine]?
KNAT1 transcripts in OE lines compared to untreated wild type (5 μM BA, 1 h, OE lines (e.g. OE1, OE12), listed as BA): less than a two fold change; also recorded: no significant difference; KNAT1 fold change (BA 0.01 μM, 5 min, AS1, ↑ up): 8.12↑; KNAT1 fold change (BA 0.01 μM, 5 min, AS8, ↑ up): 9.1↑; KNAT1 fold change (BA 0.01 μM, 5 min, AS21, ↑ up): 10.01↑; KNAT1 fold change (BA 0.01 μM, 5 min, OE1, ↓ down): 4.01↓; KNAT1 fold change (BA 0.01 μM, 5 min, OE12, ↓ down): 4.87↓; KNAT1 fold change (BA 0.01 μM, 5 min, OE18, ↓ down): 6.56↓; KNAT1 fold change (BA 0.01 μM, 5 min, Wild type, ↑ up): 2.13↑; KNAT1 fold change (BA 0.01 μM, 15 min, AS1, ↑ up): 8.57↑; KNAT1 fold change (BA 0.01 μM, 15 min, AS8, ↑ up): 9.21↑; KNAT1 fold change (BA 0.01 μM, 15 min, AS21, ↑ up): 10.39↑; KNAT1 fold change (BA 0.01 μM, 15 min, OE1, ↓ down): 3.86↓; KNAT1 fold change (BA 0.01 μM, 15 min, OE12, ↓ down): 4.56↓; KNAT1 fold change (BA 0.01 μM, 15 min, OE18, ↓ down): 6.32↓; KNAT1 fold change (BA 0.01 μM, 15 min, Wild type, ↑ up): 2.67↑; KNAT1 fold change (BA 0.01 μM, 30 min, AS1, ↑ up): 8.98↑; KNAT1 fold change (BA 0.01 μM, 30 min, AS8, ↑ up): 9.86↑; KNAT1 fold change (BA 0.01 μM, 30 min, AS21, ↑ up): 10.53↑; KNAT1 fold change (BA 0.01 μM, 30 min, OE1, ↓ down): 3.41↓; KNAT1 fold change (BA 0.01 μM, 30 min, OE12, ↓ down): 4.13↓; KNAT1 fold change (BA 0.01 μM, 30 min, OE18, ↓ down): 6.13↓; KNAT1 fold change (BA 0.01 μM, 30 min, Wild type, ↑ up): 2.98↑; KNAT1 fold change (BA 0.01 μM, 1 h, AS1, ↑ up): 9.20↑; KNAT1 fold change (BA 0.01 μM, 1 h, AS8, ↑ up): 9.98↑; KNAT1 fold change (BA 0.01 μM, 1 h, AS21, ↑ up): 11.99↑; KNAT1 fold change (BA 0.01 μM, 1 h, OE1, ↓ down): 3.01↓; KNAT1 fold change (BA 0.01 μM, 1 h, OE12, ↓ down): 3.06↓; KNAT1 fold change (BA 0.01 μM, 1 h, OE18, ↓ down): 5.98↓; KNAT1 fold change (BA 0.01 μM, 1 h, Wild type, ↑ up): 3.15↑; KNAT1 fold change (BA 0.1 μM, 5 min, AS1, ↑ up): 9.14↑; KNAT1 fold change (BA 0.1 μM, 5 min, AS8, ↑ up): 10.12↑; KNAT1 fold change (BA 0.1 μM, 5 min, AS21, ↑ up): 11.11↑; KNAT1 fold change (BA 0.1 μM, 5 min, OE1, ↓ down): 3.56↓; KNAT1 fold change (BA 0.1 μM, 5 min, OE12, ↓ down): 3.91↓; KNAT1 fold change (BA 0.1 μM, 5 min, OE18, ↓ down): 5.89↓; KNAT1 fold change (BA 0.1 μM, 5 min, Wild type, ↑ up): 3.36↑; KNAT1 fold change (BA 0.1 μM, 15 min, AS1, ↑ up): 9.39↑; KNAT1 fold change (BA 0.1 μM, 15 min, AS8, ↑ up): 10.32↑; KNAT1 fold change (BA 0.1 μM, 15 min, AS21, ↑ up): 11.26↑; KNAT1 fold change (BA 0.1 μM, 15 min, OE1, ↓ down): 3.24↓; KNAT1 fold change (BA 0.1 μM, 15 min, OE12, ↓ down): 3.71↓; KNAT1 fold change (BA 0.1 μM, 15 min, OE18, ↓ down): 5.72↓; KNAT1 fold change (BA 0.1 μM, 15 min, Wild type, ↑ up): 3.58↑; KNAT1 fold change (BA 0.1 μM, 30 min, AS1, ↑ up): 9.69↑; KNAT1 fold change (BA 0.1 μM, 30 min, AS8, ↑ up): 10.57↑; KNAT1 fold change (BA 0.1 μM, 30 min, AS21, ↑ up): 11.48↑; KNAT1 fold change (BA 0.1 μM, 30 min, OE1, ↓ down): 3.12↓; KNAT1 fold change (BA 0.1 μM, 30 min, OE12, ↓ down): 3.59↓; KNAT1 fold change (BA 0.1 μM, 30 min, OE18, ↓ down): 5.36↓; KNAT1 fold change (BA 0.1 μM, 30 min, Wild type, ↑ up): 3.89↑; KNAT1 fold change (BA 0.1 μM, 1 h, AS1, ↑ up): 9.98↑; KNAT1 fold change (BA 0.1 μM, 1 h, AS8, ↑ up): 10.99↑; KNAT1 fold change (BA 0.1 μM, 1 h, AS21, ↑ up): 11.83↑; KNAT1 fold change (BA 0.1 μM, 1 h, OE1, ↓ down): 2.96↓; KNAT1 fold change (BA 0.1 μM, 1 h, OE12, ↓ down): 3.21↓; KNAT1 fold change (BA 0.1 μM, 1 h, OE18, ↓ down): 5.01↓; KNAT1 fold change (BA 0.1 μM, 1 h, Wild type, ↑ up): 3.99↑; KNAT1 fold change (BA 1.0 μM, 5 min, AS1, ↑ up): 10.43↑; KNAT1 fold change (BA 1.0 μM, 5 min, AS8, ↑ up): 11.01↑; KNAT1 fold change (BA 1.0 μM, 5 min, AS21, ↑ up): 11.93↑; KNAT1 fold change (BA 1.0 μM, 5 min, OE1, ↓ down): 2.76↓; KNAT1 fold change (BA 1.0 μM, 5 min, OE12, ↓ down): 3.19↓; KNAT1 fold change (BA 1.0 μM, 5 min, OE18, ↓ down): 4.36↓; KNAT1 fold change (BA 1.0 μM, 5 min, Wild type, ↑ up): 4.1↑; KNAT1 fold change (BA 1.0 μM, 15 min, AS1, ↑ up): 10.68↑; KNAT1 fold change (BA 1.0 μM, 15 min, AS8, ↑ up): 11.43↑; KNAT1 fold change (BA 1.0 μM, 15 min, AS21, ↑ up): 12.02↑; KNAT1 fold change (BA 1.0 μM, 15 min, OE1, ↓ down): 2.51↓; KNAT1 fold change (BA 1.0 μM, 15 min, OE12, ↓ down): 3.01↓; KNAT1 fold change (BA 1.0 μM, 15 min, OE18, ↓ down): 4.21↓; KNAT1 fold change (BA 1.0 μM, 15 min, Wild type, ↑ up): 4.31↑; KNAT1 fold change (BA 1.0 μM, 30 min, AS1, ↑ up): 10.73↑; KNAT1 fold change (BA 1.0 μM, 30 min, AS8, ↑ up): 11.69↑; KNAT1 fold change (BA 1.0 μM, 30 min, AS21, ↑ up): 12.35↑; KNAT1 fold change (BA 1.0 μM, 30 min, OE1, ↓ down): 2.29↓; KNAT1 fold change (BA 1.0 μM, 30 min, OE12, ↓ down): 2.89↓; KNAT1 fold change (BA 1.0 μM, 30 min, OE18, ↓ down): 4.01↓; KNAT1 fold change (BA 1.0 μM, 30 min, Wild type, ↑ up): 4.59↑; KNAT1 fold change (BA 1.0 μM, 1 h, AS1, ↑ up): 11.01↑; KNAT1 fold change (BA 1.0 μM, 1 h, AS8, ↑ up): 11.93↑; KNAT1 fold change (BA 1.0 μM, 1 h, AS21, ↑ up): 12.76↑; KNAT1 fold change (BA 1.0 μM, 1 h, OE1, ↓ down): 2.01↓; KNAT1 fold change (BA 1.0 μM, 1 h, OE12, ↓ down): 2.16↓; KNAT1 fold change (BA 1.0 μM, 1 h, OE18, ↓ down): 3.92↓; KNAT1 fold change (BA 1.0 μM, 1 h, Wild type, ↑ up): 4.87↑; KNAT1 fold change (BA 5.0 μM, 5 min, AS1, ↑ up): 10.98↑; KNAT1 fold change (BA 5.0 μM, 5 min, AS8, ↑ up): 11.98↑; KNAT1 fold change (BA 5.0 μM, 5 min, AS21, ↑ up): 12.43↑; KNAT1 fold change (BA 5.0 μM, 5 min, OE1, ↓ down): 2.19↓; KNAT1 fold change (BA 5.0 μM, 5 min, OE12, ↓ down): 2.87↓; KNAT1 fold change (BA 5.0 μM, 5 min, OE18, ↓ down): 3.45↓; KNAT1 fold change (BA 5.0 μM, 5 min, Wild type, ↑ up): 5.52↑; KNAT1 fold change (BA 5.0 μM, 15 min, AS1, ↑ up): 11.01↑; KNAT1 fold change (BA 5.0 μM, 15 min, AS8, ↑ up): 12.07↑; KNAT1 fold change (BA 5.0 μM, 15 min, AS21, ↑ up): 12.54↑; KNAT1 fold change (BA 5.0 μM, 15 min, OE1, ↓ down): 2.01↓; KNAT1 fold change (BA 5.0 μM, 15 min, OE12, ↓ down): 2.62↓; KNAT1 fold change (BA 5.0 μM, 15 min, OE18, ↓ down): 3.18↓; KNAT1 fold change (BA 5.0 μM, 15 min, Wild type, ↑ up): 5.69↑; KNAT1 fold change (BA 5.0 μM, 30 min, AS1, ↑ up): 11.23↑; KNAT1 fold change (BA 5.0 μM, 30 min, Wild type, ↑ up): 5.89↑; KNAT1 transcripts, dose dependence (BA 0.01-5 μM pulse, 5 min-1 h): dose-dependent increase

From patent US9290777B2, “Putative cytokinin receptor and methods for use thereof” (NATIONAL UNIVERSITY OF SINGAPORE, priority 2007, dated 2016)
